The test system of data set [1] is MCF 10A non-tumorigenic mammary epithelial cells. The experiment in a line: MTT assay of MCF10A cells. The format is cell-based, human. A digest of the protocol: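 MCF 10A non-tumorigenic human mammary epithelial cells were seeded at 10×10^4 cells/well and treated with compounds in serum-free medium, final DMSO below 0.1%. Viability was read by MTT, and IC50 came from non-linear regression. Selectivity index = MCF 10A IC50 ÷ +SA cell line IC50.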

In data set [2] the test system is MDA-MB-231 human breast cancer cells. The experiment in a line: Wound-healing assay (cell migration). The format is cell-based. The following applies: MDA-MB-231, wound-healing assay, dose response; read-out: IC50 antimigratory activity. A digest of the protocol:
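Scratch wounds made in confluent (>95%) monolayers, then compounds added in fresh medium (5 μM in screening; concentration range in follow-up), DMSO as negative control, triplicate. After 24 h serum-starved at 37 °C, cells fixed and Diff-Quick stained. Migrated cells counted per 400× field (≥3 fields); IC50 from concentration range.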

The next data set deals with +SA mammary tumor. The experiment in a line: +SA tumor implantation into mammary fat pads of syngeneic BALB/c mice. Format: in vivo. From the text: The malignant +SA mammary epithelial cell line was derived from an adenocarcinoma that developed spontaneously in a female BALB/c mouse. These cells can be grown on plastic in culture and display the ability to grow in soft agarose. Re-implantation of +SA mammary tumor cells back into the mammary fat pad of syngeneic mice results in the rapid development and growth of metastatic tumors. Prior to experimentation, +SA cells were serially passaged at subconfluent cell density. For subculturing, cells are rinsed with calcium/magnesium-free phosphate buffered saline (PBS) and incubated in 0.05% trypsin containing 0.025% EDTA in PBS for 5 min at 37° C. […] Cell pellets are then resuspended in control culture media, counted by hemocytometer, and then plated at the desired density in culture plates. […] On the day of tumour implantation, +SA cells grown in culture are isolated with trypsin, washed, counted and diluted to the desired concentration in fresh culture medium. […] Tumor size and body weighs were recorded every other day. Average tumor diameter for each palpable tumor was determined using the mean of the 2 largest perpendicular diameters as measured with vernier calipers. Tumor volume was determined using the equation: Volume=Length (cm)×Width^2 (cm)/2 or V=L×W^2/2 […]

Like-named read-outs stand apart in the source and are kept apart here.

As to `CC(C)=CCC/C(C)=C/CC/C(C)=C/CC[C@]1(C)CCc2cc(O)c(C)c(C)c2O1` [Compound 1, γ-tocotrienol, reference compound], the half-maximal inhibitory concentration (IC50) in data set [1] (MCF10A cells, Table II, non-linear regression, read-out: MCF10A (IC50)) is 4.4 µM; in data set [1] (MCF 10A non-tumorigenic cells, Table I, read-out: IC50 MCF 10A), 4.4 µM; in data set [2], over 40 µM.
In the case of `COc1ccc(CCNCc2c(O)c(C)c(C)c3c2CC[C@@](C)(CC/C=C(\C)CC/C=C(\C)CCC=C(C)C)O3)cc1OC` [Compound 30, (R)-5-((3,4-dimethoxyphenethylamino)methyl)-2,7,8-trimethyl-2-((3E,7E)-4,8,12-trimethyltrideca-3,7,11-trienyl)chroman-6-ol], in the data set with +SA mammary tumor (0.5 mg/day intravenous, 14-day treatment period), the body weights entry was “did not significantly differ”. The “+SA mammary tumor growth” value with +SA mammary tumor (0.5 mg/day, tail vein injection, 14 day, vs vehicle-treated control) was “grew at a significantly slower rate”.
